Measured values: patent US8148426B2, “Bis(thio-hydrazide amides) for increasing Hsp70 expression” (Synta Pharmaceuticals Corp., priority 2004, dated 2012)
Where “and” joins values, the source holds several entries; their conditions need not be identical. Equal values may be shown once. Read-outs that look alike come from different tables or passages of the source.

Legend:
[1] = in vivo
Procedure: The compounds were prepared in two formulations: Formulation A contained 10% DMSO, and 18% Cremophor RH40 in water; Formulation B contained ethanol:Cremophor EL in a 1:1 ratio.
Blood samples were taken at 30 min, 1, 2, and 4 hr after injection. Brain tissue samples were taken after blood collected at 30 min, where one mouse from each group was selected and its brain was removed for analysis.
Blood samples were combined with 3-5 mg solid DTT, after which the sample was vortexed and centrifuged at 6,000 rpm×10 min. A 50 μL aliqot of plasma was taken, followed by the addition of 50 μL 1% DTT and 150 μL CH3CN (0.1% TFA). The mixture was vortexed and centrifuged at 10,000 rpm×5 min. The 150 μL supernatant was diluted with 150 μL water. A weighed tissue sample was homogenized in PBS (1:1), then combined with 1% DTT (1:1), followed by the addition of CH3CN containing 0.1% TFA (3:1). The mixture was vortexed and centrifuged at 10,000 rpm×5 min. The 150 μL supernatant was diluted with 150 μL water. 100 μL prepared samples were subjected to HPLC, using 5-95% CH3CN (0.1% trifluoroacetic acid) as the eluent.

[2] = tested on: Hsp70; assay: Plasma Hsp70 levels by ELISA in non-tumor-bearing mice (Example 3); format: in vivo; conditions: normal (non-tumor bearing) mice; 25 mg/kg intravenously 3 times a week; compared to vehicle
Procedure: Non-tumor-bearing mice were with either vehicle alone or compound (1). The vehicle employed was 10% DMSO, 18% Cremophor RH40. […] Plasma samples were prepared from tail bleed. Plasma Hsp70 levels were determined by Enzyme-Linked Immunosorbent Assay (ELISA). Plasma Hsp70 was measured by a sandwich ELISA kit (Stressgen Bioreagents Victoria, British Columbia, CANADA) according to a modified protocol in house. In brief, Hsp70 in plasma specimens and serial concentrations of Hsp70 standard were captured onto 96-well plate on which anti-Hsp70 antibody was coated. Then captured Hsp70 was detected with a biotinylated anti-Hsp70 antibody followed by incubation with europium-conjugated streptavidin. After each incubation unbound materials were removed by washing. Finally, antibody-Hsp70 complex was measured by time resolved fluorometry of europium. Concentration of Hsp70 was calculated from a standard curve.

[3] = tested on: Hsp70; assay: Phase I trial, Hsp70 in plasma before and after treatment (Example 11); format: in vivo, human
Procedure: Plasma Hsp70 was measured by a sandwich ELISA kit (Stressgen Bioreagents Victoria, British Columbia, CANADA) according to a modified protocol in house. In brief, Hsp70 in plasma specimens and serial concentrations of Hsp70 standard were captured onto 96-well plate on which anti-Hsp70 antibody was coated. Then captured Hsp70 was detected with a biotinylated anti-Hsp70 antibody followed by incubation with europium-conjugated streptavidin. After each incubation unbound materials were removed by washing. Finally, antibody-Hsp70 complex was measured by time resolved fluorometry of europium. Concentration of Hsp70 was calculated from a standard curve.

[4] = tested on: K562/eGFP; assay: NK cell cytotoxic activity of patients' PBMC (Example 12); format: in vivo, human
From the text: The following procedure can be employed to assay NK cell activity in a subject. The procedure is adapted from Kantakamalakul W, Jaroenpool J, Pattanapanyasat K. A novel enhanced green fluorescent protein (EGFP)-K562 flow cytometric method for measuring natural killer (NK) cell cytotoxic activity. J Immunol Methods. 2003 Jan. 15; 272:189-197, the entire teachings of which are incorporated herein by reference.
K562 cells were transduced with retroviral vector which encode green fluorescent protein (eGFP). Stable cell line was selected with antibiotic, G418.
The subject's peripheral blood mononuclear cells (PBMCs) were prepared by clinical study sites and received in BD Vacutainer Cell Preparation Tube with sodium heparin (Product Number: 362753, Becton Dickinson, Franklin Lakes, N.J.).
Effector cells alone and target cells alone were used as controls. All tubes were incubated at 37° C. with 5% CO2 for about 3.5 hr. Ten microliters of propidium iodide (PI) at a concentration of 1 mg/mL was added t each tube including effector and target control tubes and then incubated at room temperature for 15 min.
Cytotoxic activity was analyzed with a FACSCalibur flow cytometer (Becton Dickinson). Linear amplification of the forward and side scatter (FSC/SSC) signals, as well as logarithmic amplification of eGFP and PI emission in green and red fluorescence were obtained. […]

[5] = Phase 1/2 study, safety (Example 12); format: in vivo, human
Procedure: Phase 1 (safety/PK/MTD (maximum tolerated dose) was followed by a Phase 2 randomized two arm portion. Two dose levels were evaluated in Phase 1.
Dosing was IV q 3 weeks for up to 6 cycles in the absence of dose-limiting toxicity or progression. […] The phase 2 primary endpoint is time to progression, with secondary endpoints of response rate, survival, and quality of life. Study pharmacodynamic parameters include NK cell activity and Hsp70 level.

[6] = Tissue distribution in SW female mice, intravenous (Example 1); format: in vivo; conditions: mouse
Procedure: Plasma samples were prepared by combining 50 μL plasma+50 μL 1% dithiothreitol (DTT)+150 μL CH3CN (0.1% HCOOH), centrifuged at 10,000 rpm×5 min; 150 μL supernatant+90 μL H2O. Tissue samples were prepared by homogenizing a weighed tissue sample in phosphor-buffered saline (PBS, ×1)+1% DTT (×1)+CH3CN (0.1% HCOOH) (×3)), centrifuged at 10,000 rpm×5 min; 150 μL supernatant+90 μL H2O. […] The running time was 15 min.

[7] = Phase I trial, plasma pharmacokinetics by LC/MS (Example 11); conditions: co-administered with Compound (1) 44-[…]^2
Procedure: Pharmacokinetic (PK) studies were performed during cycle 1 using liquid chromatography/mass spectrometry (LC/MS) to measure both compounds in plasma. Heat shock protein 70 (Hsp70) was measured in plasma before and after treatment.

[8] = in vivo

CN(NC(=O)CC(=O)NN(C)C(=S)c1ccccc1)C(=S)c1ccccc1 [Compound (1)]
half-life ([1]; female, SW, mouse, in vivo, po, 100 mg/kg): 2.3 h
plasma levels of Hsp70 [2]: increase
Hsp70 concentrations, change ([3]; 175 mg/m2 Compound (1) + paclitaxel 175 mg/m2, two patients): more than doubled
percent increase in Hsp70 concentrations ([3]; 263 mg/m2 Compound (1) + paclitaxel 175 mg/m2, a third patient): more than 250%
Hsp70 concentrations, change ([3]; 263 mg/m2 Compound (1) + paclitaxel 175 mg/m2, two patients): roughly doubled
percent increase in Hsp70 concentrations ([3]; 350 mg/m2 Compound (1) + paclitaxel 175 mg/m2, all patients): more than 200%
percent increase in Hsp70 concentrations ([3]; 350 mg/m2 Compound (1) + paclitaxel 175 mg/m2, two patients): ≤ 500%
percent increase in Hsp70 concentrations ([3]; 438 mg/m2 Compound (1) + paclitaxel 175 mg/m2, another patient): ≤ 500%
Hsp70 concentrations, change ([3]; 438 mg/m2 Compound (1) + paclitaxel 175 mg/m2, two patients): roughly doubled
induction of Hsp70 protein in plasma, dose dependence ([3]; combined with paclitaxel): dose dependent
patients with evaluable samples showing increased NK cell activity ([4]; assayed 7 days after the second dose, with carboplatin and paclitaxel): Seven of the 8
% tumor cell lysis post-dose ([4]; per subject, Effector/Target 80:1, dose cells empty (subjects 9-11)): 3.8% and 45.98%
adverse effects (AEs), usually Grade 1-2 ([5]; Phase 1, 16 patients, with carboplatin and paclitaxel): arthralgia and myalgia, peripheral neuropathy, rash, nausea, and vomiting, fatigue, alopecia, edema, dehydration, constipation, and decreased blood counts
tolerability of the carboplatin:paclitaxel:Compound (1) combination ([5]; at the dose levels studied): well tolerated

COc1ccc(OC)c(C(=S)N(C)NC(=O)C(C)C(=O)NN(C)C(=S)c2cc(OC)ccc2OC)c1 [Compound (9)]
per os AUC as % of the intravenous value at 4 hours ([1]; per os 100 mg/kg formulation B vs intravenous 25 mg/kg formulation A, AUC 0-4 hours): about 30%

CN(NC(=O)CC(=O)NN(C)C(=S)C1CC1)C(=S)C1CC1 [Compound (18)]
Kp at 30 min ([6]; brain, intravenous, 25 mg/kg, read-out: brain concentration as % of plasma concentration): 0.19
Kp at 30 min ([6]; brain, iv, first experiment, 25 mg/kg intravenously, 30 min after injection, read-out: brain concentration as % of the plasma concentration): ~0.07
concentration at 30 min ([6]; brain, iv, first experiment, 25 mg/kg intravenously, 30 min after injection, read-out: concentration in brain): ~2 µM
concentration at 30 min ([6]; kidney, iv, first experiment, 25 mg/kg intravenously, 30 min after injection, read-out: concentration in kidney): 50 µM
concentration at 30 min ([6]; liver, iv, first experiment, 25 mg/kg intravenously, 30 min after injection, read-out: concentration in liver): 33 µM
concentration at 30 min ([6]; spleen, iv, first experiment, 25 mg/kg intravenously, 30 min after injection, read-out: concentration in spleen): 25 µM

CC(=O)O[C@H]1C(=O)[C@@]2(C)[C@H]([C@H](OC(=O)c3ccccc3)[C@]3(O)C[C@H](OC(=O)[C@H](O)[C@@H](NC(=O)c4ccccc4)c4ccccc4)C(C)=C1C3(C)C)[C@]1(OC(C)=O)CO[C@@H]1C[C@@H]2O [Paclitaxel, paclitaxel]
paclitaxel Vss, dependence on the Compound (1) dose [7]: increase
paclitaxel clearance, dependence on the Compound (1) dose [7]: significant trend toward decreasing clearance
paclitaxel terminal phase half-life, dependence on the Compound (1) dose [7]: without affecting
dose limiting toxicities [8]: neutropenia, arthralgia, and febrile neutropenia with mucositis
